Where “and” joins values, the source holds several entries; their conditions need not be identical. Equal entries are not always repeated. Where two headings read alike, the source gives them in different places. Where a SMILES comes first, the peptide text is derived from it. [ ]: non-standard residue; d: D form. The star is where a group is joined. Propanoyl(3-cHex) = O=C(CCC1CCCCC1)*; Dap = NC[C@H](N)C(=O)O
Experiments:
NMU2 N306W = molecular target: T1, NMU2 N306W (Homo sapiens, UniProt Q9GZQ4, N306W); experiment: TRUPATH assay, NMU2 mutant N306W; type: cell-based
T1 construct: HA signal peptide (N); expressed in transfected cells; host or cells: HEK 293F
Procedure: (§1) The plasmids of Gαi1, Gβ3, and Gγ9 used for the TRUPATH assay were purchased from Addgene (TRUPATH Kit, #1000000163). NMU2 constructs of WT and mutants were constructed into a PTT5 vector (Invitrogen) with an N-terminal HA signal peptide followed by a Flag tag. HEK 293F cells were transiently transfected with WT or mutants of NMU2, Gαi1, Gβ3, and Gγ9 at an […] ratio of 4:1:1:1 with a total of 3500 ng plasmid DNA using a transfection reagent (PEI MAX 2000, Polysciences) and cultivated at 37 °C with 5 % CO2. Cells were collected after 48-h transfection. The expression level of the receptor was measured by incubating 10 μl cells with 15 μl TBS buffer supplemented with 4% bovine serum albumin, 20% (v/v) viability staining solution7-AAD (Invitrogen, Cat#00-6993-50), and ANTI-FLAG M2-FITC antibody (Sigma, F4049; 1:100 diluted by TBS) at 4 °C for 20 min. After incubation, 175 μl TBS buffer was added, and the fluorescence signal on the cell surface was detected by an FCM (flow cytometry) reader (Millipore). The cells were diluted with 1× HBSS (Hank’s balanced salt solution) balanced buffer supplemented with 25 mM HEPES, pH 7.4, and seeded onto the 96-well opaque cell culture plates (Beyotime) at a density of 18,000 cells per well by 60 μl. Freshly prepared 50 μM coelenterazine 400a (Nanolight Technologies) was added into the well by 10 μl. After a 5 min equilibration time in the darkness, plates were then read in a Synerg^TM H1 microplate reader (BioTek) with excitation at 395 nm and emission at 410 and 515 nm by serially three times. Then, 30 μl of 3.3× agonists were added into the wells with a gradient final concentration from 10^−4–10^−13 M. Plates were read immediately again by serially five times. Data were processed and analyzed following the method in the literature by using GraphPad Prism 8.0.

NMU2 [1] = molecular target: T2, NMU2 (Homo sapiens, UniProt Q9GZQ4); experiment: TRUPATH Gαi1βγ biosensor assay, WT NMU2; type: cell-based; settings: WT; for CPN 116–induced G protein activation of NMU2: single replicates, in % (unit assumed)
T2 construct: HA signal peptide (N); expressed in transfected cells; host or cells: HEK 293F
Procedure: as §1

NMU2 H43W = molecular target: T3, NMU2 H43W (Homo sapiens, UniProt Q9GZQ4, H43W); experiment: TRUPATH assay, NMU2 mutant H43W; type: cell-based
T3 construct: HA signal peptide (N); expressed in transfected cells; host or cells: HEK 293F
Procedure: as §1

NMU2 H43E = molecular target: T4, NMU2 H43E (Homo sapiens, UniProt Q9GZQ4, H43E); experiment: TRUPATH assay, NMU2 mutant H43E; type: cell-based; settings: H43E
T4 construct: HA signal peptide (N); expressed in transfected cells; host or cells: HEK 293F
Procedure: as §1

NMU2 [2] = molecular target: T2, NMU2; design: method as in PMID 24999562, PMID 25815150, PMID 28548497; settings: potency for NMU2; cited from earlier work
NMU2 N306Q = molecular target: T5, NMU2 N306Q (Homo sapiens, UniProt Q9GZQ4, N306Q); experiment: TRUPATH assay, NMU2 mutant N306Q; type: cell-based
T5 construct: HA signal peptide (N); expressed in transfected cells; host or cells: HEK 293F
Procedure: as §1

NMU1 = test system: NMU1; design: method as in PMID 24999562, PMID 25815150, PMID 28548497; settings: cited from earlier work
NMU2 A302H = molecular target: T6, NMU2 A302H (Homo sapiens, UniProt Q9GZQ4, A302H); experiment: TRUPATH assay, NMU2 mutant A302H; type: cell-based
T6 construct: HA signal peptide (N); expressed in transfected cells; host or cells: HEK 293F
Procedure: as §1

[3] = read-out: pEC50 mean±SEM (converted)
[4] = earlier manuscript version, peer review file

T4 sequence (Q9GZQ4 whole entry H43E): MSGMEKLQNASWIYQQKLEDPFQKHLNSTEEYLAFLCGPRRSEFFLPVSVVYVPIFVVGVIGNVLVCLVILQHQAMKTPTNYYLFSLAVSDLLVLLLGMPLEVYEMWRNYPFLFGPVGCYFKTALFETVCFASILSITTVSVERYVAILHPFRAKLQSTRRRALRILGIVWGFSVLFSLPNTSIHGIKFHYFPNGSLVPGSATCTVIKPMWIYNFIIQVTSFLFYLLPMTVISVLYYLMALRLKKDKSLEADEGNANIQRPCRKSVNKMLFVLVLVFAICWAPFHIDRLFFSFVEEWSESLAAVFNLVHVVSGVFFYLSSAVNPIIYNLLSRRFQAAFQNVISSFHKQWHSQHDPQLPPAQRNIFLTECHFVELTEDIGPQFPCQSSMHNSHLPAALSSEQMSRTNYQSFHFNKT
T2 sequence (Q9GZQ4 whole entry): as the sequence (Q9GZQ4 whole entry H43E) above, with E43H counted along it
T1 sequence (Q9GZQ4 whole entry N306W): as the sequence (Q9GZQ4 whole entry H43E) above, with E43H, N306W counted along it
T3 sequence (Q9GZQ4 whole entry H43W): as the sequence (Q9GZQ4 whole entry H43E) above, with E43W counted along it
T5 sequence (Q9GZQ4 whole entry N306Q): as the sequence (Q9GZQ4 whole entry H43E) above, with E43H, N306Q counted along it
T6 sequence (Q9GZQ4 whole entry A302H): as the sequence (Q9GZQ4 whole entry H43E) above, with E43H, A302H counted along it

CC(C)C[C@H](NC(=O)CCC1CCCCC1)C(=O)N[C@@H](CC(C)C)C(=O)N[C@@H](CN)C(=O)N1CCC[C@H]1C(=O)N[C@@H](CCCNC(=N)N)C(=O)N[C@@H](CC(N)=O)C(N)=O [CPN 116] ({Propanoyl(3-cHex)}-LL[Dap]PRN-NH2; N-terminus assumed)
CPN 116–induced G protein activation of NMU2 (NMU2 N306W; Log [CPN 116] M -4, single replicates): -39.3918 and -40.1037 and -18.108
CPN 116–induced G protein activation of NMU2 (NMU2 N306W; Log [CPN 116] M -5, single replicates): -35.463 and -12.1167 and -20.5536
CPN 116–induced G protein activation of NMU2 (NMU2 N306W; Log [CPN 116] M -6, single replicates): -13.9347 and -29.6651
CPN 116–induced G protein activation of NMU2 (NMU2 N306W; Log [CPN 116] M -7, single replicates): -42.0373 and -15.8433 and -22.9653
CPN 116–induced G protein activation of NMU2 (NMU2 N306W; Log [CPN 116] M -8, single replicates): -43.5336 and -18.6278
CPN 116–induced G protein activation of NMU2 (NMU2 N306W; Log [CPN 116] M -9, single replicates): -58.7333 and -19.6009 and -22.809
CPN 116–induced G protein activation of NMU2 (NMU2 N306W; Log [CPN 116] M -10, single replicates): -49.0206 and -44.7808 and -17.6453
CPN 116–induced G protein activation of NMU2 (NMU2 N306W; Log [CPN 116] M -11, single replicates): -6.043 and -10.0645 and -20.5889
EC50 ratio EC50(mutant)/EC50(WT) (NMU2 [1]): 1
Span (window between Emax and minimal agonist response) (NMU2 [1]): 100±5 % of WT
CPN 116–induced G protein activation of NMU2 (NMU2 [1]; Log [CPN 116] M -4): 124.271 and 109.389 and 104.836 and 98.7874 and 114.415 and 92.1354 and 98.8516 and 96.9846 and 129.092
CPN 116–induced G protein activation of NMU2 (NMU2 [1]; Log [CPN 116] M -5): 81.0668 and 90.6105 and 83.9029 and 70.7281 and 97.1643 and 105.033 and 97.1976 and 102.389 and 91.9125
CPN 116–induced G protein activation of NMU2 (NMU2 [1]; Log [CPN 116] M -6): 123.537 and 69.0158 and 98.755 and 109.275 and 101.527 and 90.1601 and 88.5457 and 99.457 and 76.0968 and 66.3324
CPN 116–induced G protein activation of NMU2 (NMU2 [1]; Log [CPN 116] M -7): 58.8924 and 38.0271 and 51.0097 and 20.9117 and 20.6245 and 99.7769 and 42.6311 and 75.7485 and 28.5134 and 61.3823
CPN 116–induced G protein activation of NMU2 (NMU2 [1]; Log [CPN 116] M -8): 61.8786 and 27.1582 and 20.07 and 29.5038 and 13.1206 and 29.1828 and -9.383 and 21.3054 and 11.8363 and 17.7072
CPN 116–induced G protein activation of NMU2 (NMU2 [1]; Log [CPN 116] M -9): 19.9062 and -6.919 and 9.364 and -2.803 and 20.3603 and -10.3226 and 21.8665 and -7.72 and -11.2532 and 17.6747
CPN 116–induced G protein activation of NMU2 (NMU2 [1]; Log [CPN 116] M -10): 41.8708 and 6.201 and -13.4099 and 3.958 and 1.871 and 13.514 and 0.4422 and 6.532 and 9.793 and -10.7717
CPN 116–induced G protein activation of NMU2 (NMU2 [1]; Log [CPN 116] M -11): -45.0449 and -20.5889 and -0.1978 and -15.7237 and -24.3777 and 3.048 and -8.327 and 4.148 and -6.043 and -10.0645
EC50 (NMU2 [1]; agonist-induced G protein activation, HEK 293F, read-out: EC50): 88 nM
EC50 (NMU2 [1]; [3]): 89.1 nM
EC50 ratio EC50(mutant)/EC50(WT) (NMU2 H43W): 4
Span (window between Emax and minimal agonist response) (NMU2 H43W): 113±8 % of WT
G protein activation (TRUPATH), dose-response point (NMU2 H43W; Log [agonist] M -4): 70.3208 and 118.253 and 100.643 and 93.456
G protein activation (TRUPATH), dose-response point (NMU2 H43W; Log [agonist] M -5): 117.081 and 116.835 and 123.722 and 102.53
EC50 (NMU2 H43W; read-out: EC50): 328 nM
EC50 (NMU2 H43W; [3]): 331 nM
EC50 ratio EC50(mutant)/EC50(WT) (NMU2 H43E): 34 and ~30
Span (window between Emax and minimal agonist response) (NMU2 H43E): 68±10 % of WT
G protein activation (TRUPATH), dose-response point (NMU2 H43E; Log [agonist] M -4): 54.8659 and 69.4702 and 83.0554
reduction of potency (NMU2 H43E; [4]): about 40 fold
EC50 (NMU2 H43E; read-out: EC50): 3010 nM
EC50 (NMU2 H43E; [3]): 3020 nM
EC50 (NMU2 [2]): 6.6 nM
EC50 ratio EC50(mutant)/EC50(WT) (NMU2 N306Q): 34 and ~30
Span (window between Emax and minimal agonist response) (NMU2 N306Q): 103±8 % of WT
G protein activation (TRUPATH), dose-response point (NMU2 N306Q; Log [agonist] M -4): 92.4083 and 98.1528 and 132.361 and 88.4481
G protein activation (TRUPATH), dose-response point (NMU2 N306Q; Log [agonist] M -5): 86.2104 and 99.9961 and 102.907 and 71.1922
reduction of potency (NMU2 N306Q; [4]): about 40 fold
EC50 (NMU2 N306Q; read-out: EC50): 3030 nM
EC50 (NMU2 N306Q; [3]): 3020 nM
activation of NMU1 (NMU1): without obvious activation of NMU1
EC50 ratio EC50(mutant)/EC50(WT) (NMU2 A302H): 10
Span (window between Emax and minimal agonist response) (NMU2 A302H): 57±12 % of WT
EC50 (NMU2 A302H; read-out: EC50): 890 nM
EC50 (NMU2 A302H; [3]): 891 nM
